From ChEMBL document CHEMBL4007425, “Drug Repurposing of Histone Deacetylase Inhibitors That Alleviate Neutrophilic Inflammation in Acute Lung Injury and Idiopathic Pulmonary Fibrosis via Inhibiting Leukotriene A4 Hydrolase and Blocking LTB4 Biosynthesis” (J Med Chem, 2017)
The source made the active and inactive calls. The calls are words filed in the database; no cut-off is given here.

Legend:
Mus musculus [1] = organism: Mus musculus; details: C57BL/6, at 25 mg/kg
Description: Inhibition of LTB4 biosynthesis in LPS-induced C57BL/6 mouse model of acute lung injury BLAF at 25 mg/kg, ip by ELISA

Mus musculus [2] = assay: Anti-inflammatory activity in BLM-induced C57BL/6 mouse model of acute lung neutrophilic inflammation assessed as reduction in macrophage number in BALF at 10 and 25 mg/kg, ip qd for 7 days post BLM challenge measured on day 7; assay type: functional, organism-based
Mus musculus [3] = assay: Anti-inflammatory activity in BLM-induced C57BL/6 mouse model of acute lung neutrophilic inflammation assessed as protein concentration in BALF at 25 mg/kg, ip qd for 7 days post BLM challenge measured on day 7 (reference value: 2.39 mg/ml); assay type: functional
Mus musculus [4] = assay: Anti-inflammatory activity in BLM-induced C57BL/6 mouse model of acute lung neutrophilic inflammation assessed as reduction neutrophil count at 50 mg/kg, ip qd for 7 days post BLM challenge measured on day 7; assay type: functional, organism-based
Mus musculus [5] = assay: Anti-inflammatory activity in BLM-induced C57BL/6 mouse model of acute lung injury assessed as reduction in IL-6 level in BALF at 10 and 25 mg/kg, ip qd for 7 days post BLM challenge measured on day 7 by ELISA; assay type: functional, organism-based
Mus musculus [6] = assay: Protection against BLM-induced lung fibrosis in C57BL/6 mouse assessed as TGF-beta1 level at 10 and 25 mg/kg, ip qd for 7 days post BLM challenge measured on day 14 by qRT-PCR method; assay type: functional, organism-based
Mus musculus [7] = assay: Protection against BLM-induced lung fibrosis in C57BL/6 mouse assessed as TGF-beta1 level at 25 mg/kg, ip qd for 7 days post BLM challenge measured on day 14 by ELISA (reference value: 99.30 pg/ml); assay type: functional
Mus musculus [8] = assay: Anti-inflammatory activity in LPS-induced C57BL/6 mouse model of acute lung injury assessed as reduction in alveolar vascular permeability at 10 to 50 mg/kg, ip pretreated for 1 hr followed LPS challenge measured after 24 hrs by Evans blue dye based microscopy; assay type: functional, organism-based
Mus musculus [9] = assay: Anti-inflammatory activity in LPS-induced C57BL/6 mouse model of acute lung injury assessed as reduction in hyperemia of pulmonary alveolar septa at 10 to 50 mg/kg, ip pretreated for 1 hr followed LPS challenge measured after 24 hrs by hematoxylin and eosin staining based microscopy; assay type: functional, organism-based
Mus musculus [10] = assay: Anti-inflammatory activity in BLM-induced C57BL/6 mouse model of acute lung neutrophilic inflammation assessed as LTB4 level at 50 mg/kg, ip qd for 7 days post BLM challenge measured on day 7 (reference value: 139.23 pg/ml); assay type: functional
Mus musculus [11] = assay: Protection against BLM-induced lung fibrosis in C57BL/6 mouse assessed as TGF-beta1 level at 50 mg/kg, ip qd for 7 days post BLM challenge measured on day 7 by ELISA (reference value: 75.39 pg/ml); assay type: functional
Mus musculus [12] = assay: Anti-inflammatory activity in BLM-induced C57BL/6 mouse model of acute lung injury assessed as reduction in IL-1beta level in BALF at 25 and 50 mg/kg, ip qd for 7 days post BLM challenge measured on day 7 by ELISA; assay type: functional, organism-based
Mus musculus [13] = assay: Anti-inflammatory activity in LPS-induced C57BL/6 mouse model of acute lung injury assessed as reduction in IL-6 mRNA level pretreated intraperitoneally for 1 hr followed LPS challenge after 24 hrs by qRT-PCR method; assay type: functional
Mus musculus [14] = assay: Anti-inflammatory activity in BLM-induced C57BL/6 mouse model of acute lung neutrophilic inflammation assessed as reduction neutrophil count at 25 mg/kg, ip qd for 7 days post BLM challenge measured on day 7; assay type: functional, organism-based
Mus musculus [15] = assay: Anti-inflammatory activity in BLM-induced C57BL/6 mouse model of acute lung neutrophilic inflammation assessed as reduction in macrophage number in BALF at 25 and 50 mg/kg, ip qd for 7 days post BLM challenge measured on day 7; assay type: functional, organism-based
Mus musculus [16] = assay: Protection against BLM-induced lung fibrosis in C57BL/6 mouse assessed as TGF-beta1 level at 25 and 50 mg/kg, ip qd for 7 days post BLM challenge measured on day 14 by qRT-PCR method; assay type: functional, organism-based
Mus musculus [17] = assay: Anti-inflammatory activity in LPS-induced C57BL/6 mouse model of acute lung injury assessed as reduction in IL-1beta mRNA level pretreated intraperitoneally for 1 hr followed LPS challenge after 24 hrs by qRT-PCR method; assay type: functional
Mus musculus [18] = assay: Anti-inflammatory activity in LPS-induced C57BL/6 mouse model of acute lung injury assessed as reduction in pulmonary edema by measuring lung wet and dry ratio at 10 to 50 mg/kg, ip pretreated for 1 hr followed LPS challenge after 24 hrs; assay type: functional, organism-based

Structure (SMILES) | inhibition (Mus musculus [1]) | Activity (Mus musculus [2]) | Activity (Mus musculus [3]) | Activity (Mus musculus [4]) | Activity (Mus musculus [5]) | Activity (Mus musculus [6]) | Activity (Mus musculus [7]) | Activity (Mus musculus [8]) | Activity (Mus musculus [9]) | Activity (Mus musculus [10]) | Activity (Mus musculus [11]) | Activity (Mus musculus [12]) | Activity (Mus musculus [13]) | Activity (Mus musculus [14]) | Activity (Mus musculus [15]) | Activity (Mus musculus [16]) | Activity (Mus musculus [17]) | Activity (Mus musculus [18])
CN(C)c1ccc(C(=O)NCCCCCCC(=O)NO)cc1 | Active | Active | 1.92 mg/mL | Active | Active | Active | 38.22 pg/mL |  |  |  |  |  |  |  |  |  |  | 
O=C(CCCCCCC(=O)Nc1ccccc1)NO [VORINOSTAT] |  |  |  |  |  |  |  | Active | Active | 43.19 pg/mL | 34.09 pg/mL | Active | Dose-dependent effect | Active | Active | Active | Dose-dependent effect | Active
